# Reference: PubChem BioAssay AID1963958 (Molecular Pharmacology Branch, DTP, NCI, 2024)
# Test system: MDA-MB-231 multicell spheroids, viability
# Experiment: Anticancer human tumor MDA-MB-231 cell line growth inhibition [PI3K];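 note: spheroids exposed to agents for seven days before reading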;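 for viability, T/C: percent of vehicle control luminescence with DMSO treated spheroids as 100%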
# Details: for IC50: curve of first compound; for viability, T/C: stronger effect = lower value
# How it was run: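 Viability of mixed-cell spheroids was determined after exposure to pairwise combinations, one partner being inavolisib, alpelisib, duvelisib or copanlisib. Highest tested concentration matched clinical Cmax where known and 10 microM where not, descending in half-log steps.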
# [1] = second compound 0.0316 µM, first compound 0.000316 µM
# [2] = second compound 0.0316 µM, first compound 0.001 µM
# [3] = second compound 0.0316 µM, first compound 0.00316 µM
# [4] = second compound 0.0316 µM, first compound 0.01 µM
# [5] = second compound 0.0316 µM, first compound 0.0316 µM
# [6] = second compound 0.0316 µM, first compound 0.1 µM
# [7] = second compound 0.1 µM, first compound 0.000316 µM
# [8] = second compound 0.1 µM, first compound 0.001 µM
# [9] = second compound 0.1 µM, first compound 0.00316 µM
# [10] = second compound 0.1 µM, first compound 0.01 µM
# [11] = second compound 0.1 µM, first compound 0.0316 µM
# [12] = second compound 0.1 µM, first compound 0.1 µM
# [13] = second compound 0.316 µM, first compound 0.000316 µM
# [14] = second compound 0.316 µM, first compound 0.001 µM
# [15] = second compound 0.316 µM, first compound 0.00316 µM
# [16] = second compound 0.316 µM, first compound 0.01 µM
# [17] = second compound 0.316 µM, first compound 0.0316 µM
# [18] = second compound 0.316 µM, first compound 0.1 µM
# [19] = second compound 1 µM, first compound 0.000316 µM
# [20] = second compound 1 µM, first compound 0.001 µM
# [21] = second compound 1 µM, first compound 0.00316 µM
# [22] = second compound 1 µM, first compound 0.01 µM
# [23] = second compound 1 µM, first compound 0.0316 µM
# [24] = second compound 1 µM, first compound 0.1 µM
# [25] = second compound 3.16 µM, first compound 0.000316 µM
# [26] = second compound 3.16 µM, first compound 0.001 µM
# [27] = second compound 3.16 µM, first compound 0.00316 µM
# [28] = second compound 3.16 µM, first compound 0.01 µM
# [29] = second compound 3.16 µM, first compound 0.0316 µM
# [30] = second compound 3.16 µM, first compound 0.1 µM
# [31] = second compound 10 µM, first compound 0.000316 µM
# [32] = second compound 10 µM, first compound 0.001 µM
# [33] = second compound 10 µM, first compound 0.00316 µM
# [34] = second compound 10 µM, first compound 0.01 µM
# [35] = second compound 10 µM, first compound 0.0316 µM
# [36] = second compound 10 µM, first compound 0.1 µM
structure (smiles),measurement,setting,value
CC(=O)c1c(C)c2cnc(Nc3ccc(N4CCNCC4)cn3)nc2n(C2CCCC2)c1=O + CC(Nc1ncnc2nc[nH]c12)c1cc2cccc(Cl)c2c(=O)n1-c1ccccc1,IC50,second compound 0.0316 µM,> 0.1 µM
same,IC50,second compound 0.1 µM,0.0862 µM
same,IC50,second compound 0.316 µM,0.0753 µM
same,IC50,second compound 1 µM,0.0361 µM
same,IC50,second compound 3.16 µM,0.0114 µM
same,IC50,second compound 10 µM,< 0.000316 µM
same,"viability, T/C",[1],96.8%
same,"viability, T/C",[2],107%
same,"viability, T/C",[3],92.6%
same,"viability, T/C",[4],90.6%
same,"viability, T/C",[5],72.8%
same,"viability, T/C",[6],53.2%
same,"viability, T/C",[7],98.8%
same,"viability, T/C",[8],99.6%
same,"viability, T/C",[9],96.1%
same,"viability, T/C",[10],80.5%
same,"viability, T/C",[11],71.3%
same,"viability, T/C",[12],46.5%
same,"viability, T/C",[13],86.8%
same,"viability, T/C",[14],90%
same,"viability, T/C",[15],92.6%
same,"viability, T/C",[16],83.5%
same,"viability, T/C",[17],66.6%
same,"viability, T/C",[18],44.6%
same,"viability, T/C",[19],79.2%
same,"viability, T/C",[20],79.9%
same,"viability, T/C",[21],78.4%
same,"viability, T/C",[22],65.1%
same,"viability, T/C",[23],52.9%
same,"viability, T/C",[24],36%
same,"viability, T/C",[25],62.5%
same,"viability, T/C",[26],60.1%
same,"viability, T/C",[27],55.3%
same,"viability, T/C",[28],51.1%
same,"viability, T/C",[29],43.1%
same,"viability, T/C",[30],29.6%
same,"viability, T/C",[31],42.6%
same,"viability, T/C",[32],47.5%
same,"viability, T/C",[33],41.2%
same,"viability, T/C",[34],38%
same,"viability, T/C",[35],36.1%
same,"viability, T/C",[36],19%
CC(C)n1nc(-c2ccc3oc(N)nc3c2)c2c(N)ncnc21 + CC(Nc1ncnc2nc[nH]c12)c1cc2cccc(Cl)c2c(=O)n1-c1ccccc1,IC50,second compound 0.0316 µM,0.0644 µM
same,IC50,second compound 0.1 µM,0.0655 µM
same,IC50,second compound 0.316 µM,0.0519 µM
same,IC50,second compound 1 µM,0.0327 µM
same,IC50,second compound 3.16 µM,0.0125 µM
same,IC50,second compound 10 µM,< 0.000316 µM
same,"viability, T/C",[1],94.1%
same,"viability, T/C",[2],101%
same,"viability, T/C",[3],93.1%
same,"viability, T/C",[4],85.6%
same,"viability, T/C",[5],65.5%
same,"viability, T/C",[6],40.5%
same,"viability, T/C",[7],101%
same,"viability, T/C",[8],100%
same,"viability, T/C",[9],91.9%
same,"viability, T/C",[10],79.7%
same,"viability, T/C",[11],66.2%
same,"viability, T/C",[12],41%
same,"viability, T/C",[13],91.7%
same,"viability, T/C",[14],90.2%
same,"viability, T/C",[15],87.2%
same,"viability, T/C",[16],72.8%
same,"viability, T/C",[17],58.8%
same,"viability, T/C",[18],39.4%
same,"viability, T/C",[19],80.5%
same,"viability, T/C",[20],78%
same,"viability, T/C",[21],76.1%
same,"viability, T/C",[22],68.5%
same,"viability, T/C",[23],50%
same,"viability, T/C",[24],39.2%
same,"viability, T/C",[25],62.1%
same,"viability, T/C",[26],64.9%
same,"viability, T/C",[27],57.8%
same,"viability, T/C",[28],50.8%
same,"viability, T/C",[29],43.4%
same,"viability, T/C",[30],31.8%
same,"viability, T/C",[31],49.2%
same,"viability, T/C",[32],44.6%
same,"viability, T/C",[33],42.4%
same,"viability, T/C",[34],35.9%
same,"viability, T/C",[35],30.1%
same,"viability, T/C",[36],24.2%
CCCS(=O)(=O)Nc1ccc(F)c(C(=O)c2c[nH]c3ncc(-c4ccc(Cl)cc4)cc23)c1F + CC(Nc1ncnc2nc[nH]c12)c1cc2cccc(Cl)c2c(=O)n1-c1ccccc1,IC50,second compound 0.0316 µM,5.6 µM
same,IC50,second compound 0.1 µM,5.14 µM
same,IC50,second compound 0.316 µM,4.67 µM
same,IC50,second compound 1 µM,3.79 µM
same,IC50,second compound 3.16 µM,1.93 µM
same,IC50,second compound 10 µM,0.372 µM
same,"viability, T/C",[5],114%
same,"viability, T/C",[6],109%
same,"viability, T/C","second compound 0.0316 µM, first compound 0.316 µM",102%
same,"viability, T/C","second compound 0.0316 µM, first compound 1 µM",89.8%
same,"viability, T/C","second compound 0.0316 µM, first compound 3.16 µM",66.8%
same,"viability, T/C","second compound 0.0316 µM, first compound 10 µM",32.7%
same,"viability, T/C",[11],113%
same,"viability, T/C",[12],108%
same,"viability, T/C","second compound 0.1 µM, first compound 0.316 µM",96.5%
same,"viability, T/C","second compound 0.1 µM, first compound 1 µM",82.8%
same,"viability, T/C","second compound 0.1 µM, first compound 3.16 µM",61.2%
same,"viability, T/C","second compound 0.1 µM, first compound 10 µM",34.5%
same,"viability, T/C",[17],85.8%
same,"viability, T/C",[18],95.3%
same,"viability, T/C","second compound 0.316 µM, first compound 0.316 µM",99.2%
same,"viability, T/C","second compound 0.316 µM, first compound 1 µM",79.4%
same,"viability, T/C","second compound 0.316 µM, first compound 3.16 µM",60.1%
same,"viability, T/C","second compound 0.316 µM, first compound 10 µM",32.3%
same,"viability, T/C",[23],95.5%
same,"viability, T/C",[24],82.9%
same,"viability, T/C","second compound 1 µM, first compound 0.316 µM",77.4%
same,"viability, T/C","second compound 1 µM, first compound 1 µM",71.9%
same,"viability, T/C","second compound 1 µM, first compound 3.16 µM",54.4%
same,"viability, T/C","second compound 1 µM, first compound 10 µM",30.5%
same,"viability, T/C",[29],68.4%
same,"viability, T/C",[30],70.9%
same,"viability, T/C","second compound 3.16 µM, first compound 0.316 µM",67.2%
same,"viability, T/C","second compound 3.16 µM, first compound 1 µM",56.5%
same,"viability, T/C","second compound 3.16 µM, first compound 3.16 µM",44.6%
same,"viability, T/C","second compound 3.16 µM, first compound 10 µM",26.4%
same,"viability, T/C",[35],52.8%
same,"viability, T/C",[36],55%
same,"viability, T/C","second compound 10 µM, first compound 0.316 µM",52.1%
same,"viability, T/C","second compound 10 µM, first compound 1 µM",43.3%
same,"viability, T/C","second compound 10 µM, first compound 3.16 µM",37.7%
same,"viability, T/C","second compound 10 µM, first compound 10 µM",23%
